In patent US12453712B2, “Antitumoral use of cabazitaxel” (Sanofi Mature IP, priority 2009, dated 2025):

Test: Same clinical study: adverse reactions, hematologic abnormalities, treatment discontinuation, delays and dose reductions
Assay type: in vivo, human
Protocol: A clinical study was performed wherein patients received either treatment with cabazitaxel or the reference treatment based on mitoxantrone each combined with prednisone or prednisolone.
More specifically, patients over 18 years of age with metastatic castration resistant metastatic prostate cancer either measurable by RECIST criteria or non-measurable disease with rising PSA levels or appearance of new lesions, ECOG (Eastern Cooperative Oncology Group) performance stage 0-2, and adequate organ function (patients had to have neutrophils >1,500 cells/mm^3, platelets >100,000 cells/mm^3, hemoglobin >10 g/dL, creatinine <1.5×upper limit of normal (ULN), total bilirubin <1×ULN, AST <1.5×ULN, and ALT <1.5×ULN) who had had prior hormone therapy, chemotherapy, and radiotherapy, but had progressive during or after docetaxel treatment (cumulative dose ≥225 mg/m^2) were randomized to 10 mg/day of prednisone with either mitoxantrone 12 mg/m^2 or cabazitaxel 25 mg/m^2, both administered every 3 weeks.
Patients with a history of congestive heart failure, or myocardial infarction within the last 6 months, or patients with uncontrolled cardiac arrhythmias, angina pectoris, and/or hypertension were not included in the study.
720 patients were planned to be included in the clinical study: 360 in each cabazitaxel+prednisone and mitoxantrone+prednisone group. Seven hundred and fifty-five patients (755) (median age 68; 84% white) were actually enrolled, 378 in the cabazitaxel and prednisone/prednisolone group and 377 in the mitoxantrone and prednisone/prednisolone group. The maximal number of treatment cycles was 10 for cabazitaxel and 10 for mitoxantrone. The median number of treatment cycles was 6 for cabazitaxel and 4 for mitoxantrone. The median prior dose of docetaxel treatment was 576 mg/m^2 for the cabazitaxel group and 529 mg/m^2 for the mitoxantrone group. Median follow-up was 12.8 months.

[1] = human, in vivo, listed as Cabazitaxel
[2] = percent of patients, laboratory values, cabazitaxel: n = 369, mitoxantrone: n = 370

SMILES: CO[C@H]1C(=O)[C@]2(C)[C@@H](OC)C[C@H]3OC[C@@]3(OC(C)=O)[C@H]2[C@H](OC(=O)c2ccccc2)[C@]2(O)C[C@H](OC(=O)[C@H](O)[C@@H](NC(=O)OC(C)(C)C)c3ccccc3)C(C)=C1C2(C)C [cabazitaxel, 4α-acetoxy-2α-benzoyloxy-5β,20-epoxy-1β-hydroxy-7β,10β-dimethoxy-9-oxo-11-taxen-13α-yl (2R,3S)-3-tert-butoxycarbonyl-amino-2-hydroxy-3-phenylpropionate]
- Rates of febrile neutropenia (Example 1): 7.5%
- Dose reductions, cycles (%) (human, in vivo): 9.8%
- Dose reductions, no. of cycles (human, in vivo): 221
- Treatment delays >9 days, cycles (%) (human, in vivo): 2.3%
- Treatment delays >9 days, no. of cycles (human, in vivo): 51
- Treatment delays ≤9 days, cycles (%) (human, in vivo): 7%
- Treatment delays ≤9 days, no. of cycles (human, in vivo): 157
- Dose reductions, cycles (%) [1]: (9.8) %
- Treatment delays >9 days, cycles (%) [1]: (2.3) %
- Treatment delays ≤9 days, cycles (%) [1]: (7.0) %
- Discontinuation of study treatment for adverse event, (%) (intention-to-treat): (17.7) %
- Discontinuation of study treatment for adverse event, no. (intention-to-treat, N = 377 mitoxantrone, N = 378 cabazitaxel): 67
- most common (≥5%) grade 3-4 adverse reactions (patients who received cabazitaxel): neutropenia, leukopenia, anemia, febrile neutropenia, diarrhea, fatigue, and asthenia
- Abdominal Pain Grade 1-4, (%) (percent of patients of n = 371): (17%)
- Abdominal Pain Grade 3-4, (%) (percent of patients of n = 371): (2%)
- Alopecia Grade 1-4, (%) (percent of patients of n = 371): (10%)
- Anorexia Grade 1-4, (%) (percent of patients of n = 371): (16%)
- Anorexia Grade 3-4, (%) (percent of patients of n = 371): (<1%)
- Arrhythmia Grade 1-4, (%) (percent of patients of n = 371): (5%)
- Arrhythmia Grade 3-4, (%) (percent of patients of n = 371): (1%)
- Arthralgia Grade 1-4, (%) (percent of patients of n = 371): (11%)
- Arthralgia Grade 3-4, (%) (percent of patients of n = 371): (1%)
- Asthenia Grade 1-4, (%) (percent of patients of n = 371): (20%)
- Asthenia Grade 3-4, (%) (percent of patients of n = 371): (5%)
- Back Pain Grade 1-4, (%) (percent of patients of n = 371): (16%)
- Back Pain Grade 3-4, (%) (percent of patients of n = 371): (4%)
- Bone Pain Grade 1-4, (%) (percent of patients of n = 371): (5%)
- Bone Pain Grade 3-4, (%) (percent of patients of n = 371): (<1%)
- Constipation Grade 1-4, (%) (percent of patients of n = 371): (20%)
- Constipation Grade 3-4, (%) (percent of patients of n = 371): (1%)
- Cough Grade 1-4, (%) (percent of patients of n = 371): (11%)
- Dehydration Grade 1-4, (%) (percent of patients of n = 371): (5%)
- Dehydration Grade 3-4, (%) (percent of patients of n = 371): (2%)
- Diarrhea Grade 1-4, (%) (percent of patients of n = 371): (47%)
- Diarrhea Grade 3-4, (%) (percent of patients of n = 371): (6%)
- Dizziness Grade 1-4, (%) (percent of patients of n = 371): (8%)
- Dysgeusia Grade 1-4, (%) (percent of patients of n = 371): (11%)
- Dyspepsia Grade 1-4, (%) (percent of patients of n = 371): (10%)
- Dyspnea Grade 1-4, (%) (percent of patients of n = 371): (12%)
- Dyspnea Grade 3-4, (%) (percent of patients of n = 371): (1%)
- Dysuria Grade 1-4, (%) (percent of patients of n = 371): (7%)
- Fatigue Grade 1-4, (%) (percent of patients of n = 371): (37%)
- Fatigue Grade 3-4, (%) (percent of patients of n = 371): (5%)
- Febrile Neutropenia Grade 1-4, (%) (percent of patients of n = 371): (7%)
- Febrile Neutropenia Grade 3-4, (%) (percent of patients of n = 371): (7%)
- Headache Grade 1-4, (%) (percent of patients of n = 371): (8%)
- Hematuria Grade 1-4, (%) (percent of patients of n = 371): (17%)
- Hematuria Grade 3-4, (%) (percent of patients of n = 371): (2%)
- Hypotension Grade 1-4, (%) (percent of patients of n = 371): (5%)
- Hypotension Grade 3-4, (%) (percent of patients of n = 371): (<1%)
- Mucosal Inflammation Grade 1-4, (%) (percent of patients of n = 371): (6%)
- Mucosal Inflammation Grade 3-4, (%) (percent of patients of n = 371): (<1%)
- Muscle Spasms Grade 1-4, (%) (percent of patients of n = 371): (7%)
- Musculoskeletal Pain Grade 1-4, (%) (percent of patients of n = 371): (5%)
- Musculoskeletal Pain Grade 3-4, (%) (percent of patients of n = 371): (<1%)
- Nausea Grade 1-4, (%) (percent of patients of n = 371): (34%)
- Nausea Grade 3-4, (%) (percent of patients of n = 371): (2%)
- Pain Grade 1-4, (%) (percent of patients of n = 371): (5%)
- Pain Grade 3-4, (%) (percent of patients of n = 371): (1%)
- Pain in Extremity Grade 1-4, (%) (percent of patients of n = 371): (8%)
- Pain in Extremity Grade 3-4, (%) (percent of patients of n = 371): (2%)
- Peripheral Edema Grade 1-4, (%) (percent of patients of n = 371): (9%)
- Peripheral Edema Grade 3-4, (%) (percent of patients of n = 371): (<1%)
- Peripheral Neuropathy Grade 1-4, (%) (percent of patients of n = 371): (13%)
- Peripheral Neuropathy Grade 3-4, (%) (percent of patients of n = 371): (<1%)
- Pneumonia Grade 1-4, (%) (percent of patients of n = 371): (3%)
- Pneumonia Grade 3-4, (%) (percent of patients of n = 371): (2%)
- Pyrexia Grade 1-4, (%) (percent of patients of n = 371): (12%)
- Pyrexia Grade 3-4, (%) (percent of patients of n = 371): (1%)
- Urinary Tract Infection Grade 1-4, (%) (percent of patients of n = 371): (8%)
- Urinary Tract Infection Grade 3-4, (%) (percent of patients of n = 371): (2%)
- Vomiting Grade 1-4, (%) (percent of patients of n = 371): (22%)
- Vomiting Grade 3-4, (%) (percent of patients of n = 371): (2%)
- Weight Decreased Grade 1-4, (%) (percent of patients of n = 371): (9%)
- Anemia Grade 1-4, (%) [2]: (98%)
- Anemia Grade 3-4, (%) [2]: (11%)
- Leukopenia Grade 1-4, (%) [2]: (96%)
- Leukopenia Grade 3-4, (%) [2]: (69%)
- Neutropenia Grade 1-4, (%) [2]: (94%)
- Neutropenia Grade 3-4, (%) [2]: 81.7%
- Thrombocytopenia Grade 1-4, (%) [2]: (48%)
- Thrombocytopenia Grade 3-4, (%) [2]: (4%)
- Neutropenia Grade 3-4, (%) (percent of patients, laboratory values, cabazitaxel: n = 369, mitoxantrone: n = 370, listed as Cabazitaxel): (82%)
